# Results reported in patent US20040024033A1 (priority 1998, published 2004).
# Where two headings read alike, the source gives them in different places.
# Tests used:
# [1] = test system: A549 non small cell lung tumors
# Experimental: 3-10 million cells are implanted s.c. into the right axillary (lateral) region of outbred athymic (nu/nu) mice, and are allowed to grow until a tumor volume of approximately 100 mm^3 is established. Epothilone B is formulated in 1% DMSO in 5% glucose in distilled water (D5W), and administered i.v. either once only, once per week, 3 times per week, or 5 times per week. Positive controls are carried out with clinical formulations of TAXOL® diluted 6 fold with D5W and administered i.v. 3×/week.
# Antitumor activity is expressed as % T/C (comparing Δ tumor volumes for treatment group to vehicle control group) at the end of the experiment. Regressions are calculated using the formula: −(T/T0−1)×100% , where T is the tumor volume for the treatment group at the end of the experiment, and T0 is the tumor volume at the beginning of the experiment. Statistical significance is evaluated using a one-tailed Student's t-test.
# Treatments are started on day 16 post implantation (10 million cells/animal). Epothilone B is administered i.v. once at 6 mg/kg (day 16), once weekly at 4 mg/kg (days 16, 23, and 30), three times per week at 1.5 mg/kg (days 16, 18, 21, 23, 25, 28, 30, 32, and 35), or five times per week at 0.5 mg/kg (days 16-18, 21-25, 28-32, and 35-36). TAXOL® is administered i.v. three times per week at 20 mg/kg (days 16, 18, 21, 23, 25, 28, 30, 32, and 35) as split doses of 10 mg/kg given one hour apart. Vehicle control (1% DMSO/D5W) is administered i.v. three times per week (days 16, 18, 21, 23, 25, 28, 30, 32, and 35). All final data are recorded on day 37. A single asterisk (*) indicates p<0.05, and a double asterisk (**) indicates p<0.01, using a one-tailed Student's t-Test.
# [2] = test system: human KB-8511 epidermoid carcinoma; assay type: in vivo, female BALB/c nude mice
# Experimental: Female or male BALB/c nu/nu (nude) mice are kept under sterile conditions (10 to 12 mice per Type III cage) with free access to food and water. Mice weigh between 20 and 25 grams at the time of tumor implantation. Tumors are established by subcutaneous injection of cells (minimum 2×10^6 cells in 100 μl PBS or medium) in carrier mice (4-8 mice per cell line). The resulting tumors are serially passaged for a minimum of three consecutive transplantations prior to start of treatment. Tumor fragments (approx. 25 mg) are implanted s.c. into the left flank of animals with a 13-gauge trocar needle while the mice are exposed to Forene (Abbott, Switzerland) anesthesia.
# Tumor growth and body weights are monitored once or twice weekly. All treatments are administered intravenously (i.v.) and are initiated when a mean tumor volume of approximately 100 to 250 mm^3 is attained, depending upon the tumor type. Tumor volumes are determined using the formula […] (see Cancer Chemother. Pharmacol. 24:148-154, [1989]). Treatments with epothilone B vary the dose and the frequency of administration. Comparator agents are administered according to previously determined optimal treatment regimens. In addition to presenting changes in tumor volumes over the course of treatment, antitumor activity is expressed as T/C% (mean increase of tumor volumes of treated animals divided by the mean increase of tumor volumes of control animals multiplied by 100). Tumor regression (%) represents the smallest mean tumor volume compared to the mean tumor volume at the start of treatment, according to the formula Regression (%)=(1−Vend/Vstart)×100 (Vend=final mean tumor volume, Vstart=mean tumor volume at the start of treatment. Any animals in which the tumor has reached a size exceeding approximately 1.5 to 2.5 cm^3 are sacrificed. Details can be found below.
# Tumor fragments of approximately 25 mg are implanted into the left flank of each female nude mouse (n=8 per group). Treatments are started on day 13 after tumor transplantation. epothilone B is administered once at 4 mg/kg, i.v. on day 13, or once per week at 4, 2 or 1 mg/kg, i.v., (on days 13, […] and 27). TAXOL® is administered i.v. at 20 mg/kg/day, every second day for 5 treatments (days 13, 15, 17, 19 and 21). Antitumor activity is expressed as T/C% (mean increase of tumor volumes of treated animals divided by the mean increase of tumor volumes of control animals multiplied by 100). Tumor regression (%) represents the final mean tumor volume compared to the mean tumor volume at the start of treatment. Changes (Δ) in Tumor volumes represent the tumor volume on the last treatment day minus the tumor volume on the first treatment day. Statistical analyses on Δ tumor volumes uses Dunnett's test to compare treatment groups to controls. […]
# [3] = test system: A549 non-small cell lung tumors; assay type: in vivo, outbred athymic (nu/nu) mice; details: for % T/C / Dead/Total: extended observation, day 48
# Experimental: Materials and methods pertaining to the human tumor xenograft model are as previously described.
# Measurements are taken for an additional 2 weeks after completion of the regular 3 weeks experiments, to evaluate reversibility of drug-induced body weight loss, and sustainability of antitumor effects.
# Treatments are started on day 13 post implantation (10 million cells/animal). Epothilone B is administered i.v. once weekly for 3 weeks (days 13, 20, and 27) at doses of 1, 2, 3, and 3.5 mg/kg. […] Final data are recorded on day 34. A single asterisk (*) indicates p<0.05 using a one-tailed Student's t-Test, and a double asterisk (**) indicates p<0.05 using a Dunnett's or Dunn's test.
# Measurements for the experiment described in Table 1 are extended by additional two weeks. Final data are recorded on day 48. A single asterisk (*) indicates p<0.05 using a one-tailed Student's t-Test, and a double asterisk (**) indicates p<0.05 using a Dunneff's or Dunn's test.
# [4] = Two-week intravenous comparative toxicity study in mice; assay type: in vivo, normal female BALB/c mice
# Experimental: In order to assess the sub-chronic intravenous toxicity of epothilone B, a non-GLP two-week i.v. toxicity study in non-tumor bearing, normal female BALB/c mice is conducted, involving analysis of mortality, clinical signs, body weight, food consumption, hematology, clinical biochemistry, urinalysis, and organ weights as well as macro and microscopic examinations. The study is based on two different dosing regimens of epothilone B of 3 mg/kg and 10 mg/kg, respectively, administered on days 1 and 8 (8 animals per group). Half of the animals are killed on day 15 (main group) and necropsy is performed. For the other half (recovery group) a recovery period of 5 weeks is allowed after administration of the second dose before sacrifice and subsequent necropsy on day 43.
# [5] = Determination of the single i.v. dose MTD in nude mice; assay type: in vivo, female BALB/c nude mice; details: mean ± SD
# Experimental: For the MTD determination, female BALB/c nude mice or BALB/c mice (obtained from Novartis Animal Farm, Sisseln, Switzerland) are treated once intravenously with epothilone B (n=3 per dose group). The dosage is increased (2, 4, 6, 8, 10 and 12 mg/kg) and the mice are observed for the presentation of overt toxic effects for 10 days after drug treatment.
# Epothilone B is given as a single i.v. bolus dose at 2, 4, 6, 8, 10 or 12 mg/kg. Survival and body weights of the mice are monitored daily. Changes (A) in body weights are determined comparing the last measured body weight to that before treatment.
# [6] = 1 mg/kg i.v. once weekly for 3 weeks
# [7] = 2 mg/kg i.v. once weekly for 3 weeks
# [8] = 3 mg/kg i.v. once weekly for 3 weeks
# [9] = 3.5 mg/kg i.v. once weekly for 3 weeks
# [10] = 3 mg/kg i.v. on days 1 and 8, day 15
# [11] = 10 mg/kg i.v. on days 1 and 8, day 15
structure (smiles),measurement,setting,value
C/C(=C\c1csc(C)n1)[C@@H]1C[C@@H]2O[C@]2(C)CCC[C@H](C)[C@H](O)[C@@H](C)C(=O)C(C)(C)[C@@H](O)CC(=O)O1 [epothilone B],body weight loss,[1]; 0.5 mg/kg i.v. 5x/week,23%
same,Dead/Total,[1]; 1.5 mg/kg i.v. 3x/week,all animals have to be euthanatized in the first week of the experiment due to toxicity
same,body weight loss,[1]; 4 mg/kg i.v. 1x/week,13%
same,% Regression,"[1]; 6 mg/kg i.v. once, day 37",none
same,% T/C,"[1]; 6 mg/kg i.v. once, day 37",41%
same,Dead/Total,"[1]; 6 mg/kg, i.v. once",0/8
same,mice with undetectable tumors at the end of the experiment,[2]; 2 mg/kg/week,1/8
same,% Body Weight Change,"[2]; 4 mg/kg, i.v. once per week",−5±7%
same,T/C,"[2]; 4 mg/kg, i.v. once per week",Regres-
same,mice with undetectable tumors at the end of the experiment,[2]; 4 mg/kg/week,5/8
same,% T/C,[3]; [6],72%
same,Dead/Total,[3]; [6],0/8
same,% T/C,[3]; [7],49%
same,Dead/Total,[3]; [7],0/8
same,% T/C,[3]; [8],16%
same,Dead/Total,[3]; [8],0/8
same,% T/C,[3]; [9],12%
same,Dead/Total,[3]; [9],0/8
same,body weight loss,"[3]; 3.5 and 3 mg/kg i.v. once weekly, reversible",approximately 15%
same,Mortalities throughout the treatment period (days 1-14),[4]; 3 mg/kg i.v. on days 1 and 8,No mortalities
same,Atrophy of the thymus (microscopic),[4]; [10],moderate
same,Hematology: leukocytes,[4]; [10],reduction in the number of leukocytes
same,"Sternal bone marrow, microscopic",[4]; [10],minimal to slight erythroid and myeloid atrophy
same,Survival of the recovery group,"[4]; 3 mg/kg i.v. on days 1 and 8, to day 43",all animals of the recovery group survive until the end of the study
same,Body weight,"[4]; 3 mg/kg i.v. on days 1 and 8, treatment period",body weight loss at the 3 mg/kg dose is only apparent in the second week
same,Mortalities throughout the treatment period (days 1-14),[4]; 10 mg/kg i.v. on days 1 and 8,No mortalities
same,Atrophy of the thymus (microscopic),[4]; [11],marked
same,"Spleen, microscopic",[4]; [11],minimal lymphoid atrophy
same,"Sternal bone marrow, microscopic",[4]; [11],minimal to slight myeloid hypoplasia
same,Hematology: leukocytes,"[4]; 10 mg/kg i.v. on days 1 and 8, day 15, effect more pronounced",reduction in the number of leukocytes
same,Body weight,"[4]; 10 mg/kg i.v. on days 1 and 8, first and second week",Body weight loss is observed for all animals
same,"Intestinal mucosa (small and large intestine), microscopic","[4]; both dose levels (3 and 10 mg/kg), day 15",Minimal single cell necrosis
same,Body Weight Δ,[5]; 2 mg/kg single i.v. bolus,1.0 ± 0.5 g
same,Body Weight Δ,[5]; 4 mg/kg single i.v. bolus,-0.4 ± 0.6 g
same,Body Weight Δ,[5]; 6 mg/kg single i.v. bolus,-1.0 ± 0.5 g
same,Body Weight Δ,[5]; 8 mg/kg single i.v. bolus,-3.8 ± 2.7 g
same,Body Weight Δ,[5]; 10 mg/kg single i.v. bolus,-5.6 ± 3.3 g
same,Body Weight Δ,[5]; 12 mg/kg single i.v. bolus,-5.1 ± 0.6 g
